Measurements taken from patent publication US4327224A, “α-[(alkylamino)alkyl]-4-hydroxy-3-(alkylthio)benzenemethanols, derivatives thereof and intermediates therefor” (Sterling Drug Inc., priority 1976, dated 1982).
Counter-ions that a name gives are not always drawn.

Tests used:
systolic blood pressure = assay: Reduction in systolic blood pressure in the unanesthetized spontaneous hypertensive rat (antihypertensive activity); assay type: in vivo; details: single oral medication
Experimental: Antihypertensive activity was determined on the basis of the observed reduction in systolic blood pressure measured according to the method of H. Kersten et al., J. Lab. and Clin. Med. 32, 1090 (1947) following a single oral medication in the unanesthetized spontaneous hypertensive rat described by Okamato et al., Japan Circulation J. 27, 282 (1963).

β-adrenergic [1] = assay: Inhibition of isoproterenol-induced heart rate elevation in the pentobarbitalized dog (β-adrenergic blocking activity); assay type: in vivo; details: test compound 1.0 mg/kg, isoproterenol intravenous
[2] = tested on: respiratory smooth muscle; assay: Inhibition of histamine-induced bronchoconstriction in the dog (β-adrenergic stimulant activity); assay type: in vivo; details: 100-200 mcg/kg, over a period of 2 hours
cardiac muscle = assay: Increase in heart rate (β-adrenergic stimulant activity); assay type: in vivo; details: dog; 100-200 mcg/kg
[3] = tested on: hind limb vasculature of the anesthetized dog; isolated rabbit ear artery; assay: Reduction in perfusion pressure in hind limb vasculature of the anesthetized dog and in the isolated rabbit ear artery (vasodilator activity); assay type: in vivo
From the text: 17, 357 (1972), and also on the basis of percent reduction in perfusion pressure as measured in the isolated rabbit ear artery according to the method described by De La Lande et al. Aust. J. Exp. Biol. Med. Sci. 43, 639 (1965).

β-adrenergic [4] = details: Kaiser et al. 1975; cited from earlier work
β-adrenergic [5] = details: Kaiser et al. 1975; cited from earlier work; remark: listed apart in the source

SMILES	antihypertensive activity (reduction in systolic blood pressure) (systolic blood pressure)	% Inhibition of Heart Rate Elevation (β-adrenergic [1]) [%]	inhibition of the histamine-induced bronchoconstriction [2] [%]	increase in heart rate (β-adrenergic stimulant activity) (cardiac muscle)	vasodilator activity (reduction in perfusion pressure) [3]	β-adrenergic antagonistic activity (β-adrenergic [4])	β-adrenergic agonist activity (β-adrenergic [5])
CSc1cc(C(O)CNC(C)(C)C)ccc1OC(C)=O (stereo not drawn) [Example 3, α-[(tert-butylamino)methyl]-4-hydroxy-3-(methylthio)benzenemethanol 4-acetate hydrochloride]	antihypertensive	50	50	increase in heart rate	vasodilator activity		
C[S+]([O-])c1cc(C(O)CNC(C)(C)C)ccc1O (stereo not drawn) [Example 4, α-[(t-butylamino)methyl]-4-hydroxy-3-(methylsulfinyl)benzenemethanolmethanesulfonate]	antihypertensive	100	50	increase in heart rate	vasodilator activity		
CC(C)(C)NCC(O)c1ccc(O)c(S(C)(=O)=O)c1 (stereo not drawn) [Example 6, α-[(t-butylamino)methyl]-4-hydroxy-3-(methylsulfonyl)benzenemethanolmethanesulfonate]		87					
CC(C)(C)NCC(O)c1ccc(O)c(S(C)(=O)=O)c1 (stereo not shown) [drawing 3]						exhibits β-adrenergic antagonistic activity	weakly active
